# Data: patent publication US9127045B2, “Method of inhibiting bacterial growth and biofilm formation with natural quorum sensing peptides” (UNIVERSITY OF SOUTHERN CALIFORNIA, priority 2005, dated 2015)
# Ends that are not written are not given here.
# How the values were obtained:
# [1] = test system: GTFB expression in the wild-type S. mutans; assay: Western blot of GTFB expression after addition of CSP to cultures; assay type: cell-based; conditions: CSP added to fresh cultures at time of dilution, 1 to 8 mcg/mL; FIG. 7 panel 1
# Description: (§1) For the Western blotting, the bacteria were incubated to the desired optical density, subjected to the freeze-thaw cycle and mixed with the sample loading buffer. The samples were heated at 100° C. for 15 minutes and subjected to the PAGE. The number of cells per lane of the gel was kept constant at 10^8 cells. The western blotting was performed in accordance with a standard procedure (Sambrook, J. and Russel D. W. Molecular Cloning, a laboratory manual, 3rd ed. Cold Spring Harbor Laboratory Press, NY, 2001). Briefly, after PAGE the samples were transferred onto the nitrocellulose membrane and the latter subjected to the standard ELISA procedure. The anti-GTFB mouse monoclonal antibody was previously characterized (Fukushima, K., Okada, T., Ochiai, K., Infection and Immunity 61:323-328 (1993), incorporated herein by reference). The secondary antibody (HRP-linked goat anti-mouse) and the detection reagents were purchased from Cell Signaling Technology (Beverly, Mass.).
# (§2) Synthetic CSP was dissolved in water to the concentration of 1 mg/mL as described in Li, Y-H et al., J. of Bact., 183:897-908 (2001). […]
# (§3) A Western blot analysis was performed to determine the effect of CSP on the level of GTFB expression. […] As a control, the same blot was analyzed with antibody specific to FTF, where it was observed that CSP has no effect on FTF expression (FIG. 7, panel 2).
# FTF expression = assay: Western blot of FTF expression (control) after addition of CSP; assay type: cell-based, S. mutans; conditions: same blot, antibody specific to FTF; FIG. 7 panel 2
# Description: as §1, §2, §3
# gtfB gene of S. mutans = assay: Transcriptional fusion assay (gtfB promoter-luciferase); assay type: cell-based
# From the text: The fusion constructs and the transcription assay were previously described (Goodman, S. D. and Gao, Q., Plasmid 43:85-98 (2000)). Briefly, the constructs comprised the upstream regions of the gtfB and gtfC genes fused to the promoterless coding sequence of the firefly luciferase gene and inserted into the plasmid vector pVA838, a shuttle plasmid capable of propagating in both E. coli and S. mutans marked with erythromycin resistance. The plasmids were introduced into S. mutans GS5 by electroporation and the resulting erythromycin resistant strains were grown in liquid cultures and collected at various optical densities. The reporter gene (luciferase) expression was detected by measuring luminescence upon the addition of luciferin (the substrate for luciferase), see Goodman, S. D. and Gao Q. Plasmid 42:154-157 (1999), incorporated herein by reference.
# as §2
# The transcriptional fusion assay was performed to determine whether CSP inhibits the expression of the gtfB gene of S. mutans. […] When the expression peaked at the end of the lag phase prior to the exponential growth, the cells were challenged with increasing concentrations of CSP for an incubation period of 10 minutes and assessed for luminescence, the measure of reporter gene expression. […]
# S. mutans = assay: In vitro attachment assay to a smooth surface (Petri dish) with sucrose; assay type: cell-based; conditions: CSP at 8 µg/mL for 10 minutes prior to one hour incubation on Petri dishes with sucrose; without CSP up to 51%; FIG. 9
# Description: The bacteria were grown in liquid cultures to the desired optical density. 20 ml of the cultures were then transferred into Petri dishes and sucrose added to the final concentration of 2%. The incubation was resumed for one hour, after which the liquid fraction was withdrawn and the fresh medium was added into which the layer of attached cells was scraped. The percentage of the attached bacteria was determined as the ratio of the optical densities of the attached to the total (a sum of attached and unattached) bacteria.
# Synthetic CSP was dissolved in water to the concentration of 1 mg/mL as described in Li, Y-H et al., J. of Bact., 183:897-908 (2001). The cultures were grown in Todd Hewitt Broth (THB) supplemented with 5% horse serum. CSP was added to the cultures at the time of diluting the overnight culture (time zero of the culture growth) to a designated concentration between 1 and 8 mcg/mL. The incubation then continued up to the optical density where the expression of GTF is maximal (OD 650=0.1). The cultures where then collected and used in Western blotting with anti-glucosyltransferase (gtf) antibody. […]
# An in vitro assay was performed to determine whether CSP can inhibit the attachment of S. mutans to a smooth surface. When sucrose was added to the medium, the wild-type S. mutans readily attached to the surface of a Petri dish. […]
# [2] = test system: S. mutans wild-type strains UA140 and UA159; assay: Growth inhibition of S. mutans culture by CSP pulse (96-well plate, cell density); assay type: cell-based
# Description: Previously, it was assumed that quorum sensing may be an on/off type of switching event wherein when the quorum sensing molecule reaches a certain threshold, a new behavior is […] and vice versa. The inventors have unexpectedly discovered that the QS regulated gene expression is not an all-or-nothing type of system, but actually has a dose-dependent response. […] At a 100-fold higher concentration (400 μM), CSP inhibits the growth of a S. mutans culture by 50%.
# The experiment was performed in a 96-well plate with triplicate wells for each treatment. Cell density was measured by using a plate reader (BioRad). The experiment was repeated three times. Numbers represent the average of the triplicate samples from one representative experiment. Variations between experiments were within 20%.
# These experiments were designed to mimic the conditions of the dental hygiene regimen. Specifically, the bacteria were “pulsed” with CSP. The peptide was added for a mere 10 minutes, washed away and the incubation continued in the fresh medium. In this set-up the inhibitory effect persisted for a long time and became undetectable only after 16 hours of the culture growth. Competition experiments have also shown that a mere 3-hour advantage is sufficient to ensure that a resident species in a biofilm will out compete the newcomer.
sequence,measurement,setting,value
SGSLSTFFRLFNRSFTQALGK [CSP],peak expression of GTFB (Western blot),[1],lowered proportionally to the amount of peptide added
same,FTF expression (Western blot),FTF expression,no effect
same,inhibition of the gtf genes,gtfB gene of S. mutans; CSP 8 μg/ml (4 μM),desired inhibition of the gtf genes
same,gtfB reporter gene expression (luminescence),"gtfB gene of S. mutans; increasing concentrations of CSP, 10 minutes incubation at peak expression, FIG. 8",increasing concentrations of CSP increased the magnitude of repression
same,bacterial cells localized to the attached layer,S. mutans,less than 8%
same,inhibition of growth of S. mutans culture,"[2]; CSP 400 μM, 10 minute pulse, FIG. 12",50%
same,effect on cell division and viability,"[2]; CSP 1.6 mM, 10 minute pulse, FIG. 12",cell division stops and cells begin to die
same,time of culture growth after which the inhibitory effect became undetectable,"[2]; CSP added for 10 minutes, washed away, incubation in fresh medium",16 h
